Test results: ChEMBL document CHEMBL1141471, “Implications for selectivity of 3,4-diarylquinolinones as p38alphaMAP kinase inhibitors” (Bioorg Med Chem Lett, 2008)
pIC50: −log10 of the molar value. Each block holds one compound with its values, some of them ahead of it.

Assays:
[1] = target: Mitogen-activated protein kinase 1 (Homo sapiens) (UniProt P28482); experiment: Residual activity of ERK2 at 10 uM relative to control
[2] = Inhibition of PKA; values are per cent of control
[3] = target: Mitogen-activated protein kinase 8 (Homo sapiens) (UniProt P45983); experiment: Residual activity of JNK1 at 10 uM relative to control
Chain of Mitogen-activated protein kinase 8 (Homo sapiens) (P45983 whole entry): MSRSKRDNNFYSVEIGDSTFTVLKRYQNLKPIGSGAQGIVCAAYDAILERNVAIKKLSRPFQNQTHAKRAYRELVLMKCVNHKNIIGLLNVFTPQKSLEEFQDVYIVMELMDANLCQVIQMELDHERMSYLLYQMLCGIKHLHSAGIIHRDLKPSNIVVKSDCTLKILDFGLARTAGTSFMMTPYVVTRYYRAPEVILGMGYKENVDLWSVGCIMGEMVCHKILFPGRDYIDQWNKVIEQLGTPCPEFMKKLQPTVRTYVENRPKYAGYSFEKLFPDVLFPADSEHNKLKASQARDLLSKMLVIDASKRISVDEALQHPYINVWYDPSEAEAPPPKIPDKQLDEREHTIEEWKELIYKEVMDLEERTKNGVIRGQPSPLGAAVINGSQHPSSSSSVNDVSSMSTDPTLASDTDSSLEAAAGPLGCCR

[4] = target: T1, Mitogen-activated protein kinase 9 (Homo sapiens, UniProt P45984); experiment: Inhibition of JNK2
Target sequence in this assay (P45984 whole entry): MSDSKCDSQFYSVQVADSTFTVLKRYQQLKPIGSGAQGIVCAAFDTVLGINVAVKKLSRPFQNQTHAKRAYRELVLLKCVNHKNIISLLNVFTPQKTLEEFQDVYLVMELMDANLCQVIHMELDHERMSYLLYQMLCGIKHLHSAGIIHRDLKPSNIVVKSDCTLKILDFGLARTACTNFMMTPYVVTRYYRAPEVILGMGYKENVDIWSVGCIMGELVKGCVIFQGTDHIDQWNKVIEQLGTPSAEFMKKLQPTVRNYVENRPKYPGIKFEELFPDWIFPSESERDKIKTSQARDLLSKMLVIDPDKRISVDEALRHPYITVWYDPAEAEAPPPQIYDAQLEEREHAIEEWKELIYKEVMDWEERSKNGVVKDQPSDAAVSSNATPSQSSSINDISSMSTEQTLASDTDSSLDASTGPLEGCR

[5] = target: Mitogen-activated protein kinase 10 (Homo sapiens) (UniProt P53779); experiment: Residual activity of JNK3 at 10 uM relative to control
Chain of Mitogen-activated protein kinase 10 (Homo sapiens) (P53779 whole entry): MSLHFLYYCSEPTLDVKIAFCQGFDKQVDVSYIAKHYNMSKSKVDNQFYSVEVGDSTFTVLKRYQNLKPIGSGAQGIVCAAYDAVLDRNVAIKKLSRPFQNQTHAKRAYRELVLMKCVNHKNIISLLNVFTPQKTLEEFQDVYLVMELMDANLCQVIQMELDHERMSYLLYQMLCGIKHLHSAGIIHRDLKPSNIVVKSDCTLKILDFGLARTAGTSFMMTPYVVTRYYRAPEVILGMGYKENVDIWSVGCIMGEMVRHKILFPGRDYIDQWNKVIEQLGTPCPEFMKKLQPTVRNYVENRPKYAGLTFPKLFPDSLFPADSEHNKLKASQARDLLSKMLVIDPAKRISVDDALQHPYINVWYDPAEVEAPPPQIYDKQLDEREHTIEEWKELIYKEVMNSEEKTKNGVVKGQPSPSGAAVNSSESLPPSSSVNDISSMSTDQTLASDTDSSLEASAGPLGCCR

[6] = target: Tyrosine-protein kinase Lck (Homo sapiens) (UniProt P06239); experiment: Inhibition of Lck; values are per cent of control
Chain of Tyrosine-protein kinase Lck (Homo sapiens) (P06239 2-509 limits assumed): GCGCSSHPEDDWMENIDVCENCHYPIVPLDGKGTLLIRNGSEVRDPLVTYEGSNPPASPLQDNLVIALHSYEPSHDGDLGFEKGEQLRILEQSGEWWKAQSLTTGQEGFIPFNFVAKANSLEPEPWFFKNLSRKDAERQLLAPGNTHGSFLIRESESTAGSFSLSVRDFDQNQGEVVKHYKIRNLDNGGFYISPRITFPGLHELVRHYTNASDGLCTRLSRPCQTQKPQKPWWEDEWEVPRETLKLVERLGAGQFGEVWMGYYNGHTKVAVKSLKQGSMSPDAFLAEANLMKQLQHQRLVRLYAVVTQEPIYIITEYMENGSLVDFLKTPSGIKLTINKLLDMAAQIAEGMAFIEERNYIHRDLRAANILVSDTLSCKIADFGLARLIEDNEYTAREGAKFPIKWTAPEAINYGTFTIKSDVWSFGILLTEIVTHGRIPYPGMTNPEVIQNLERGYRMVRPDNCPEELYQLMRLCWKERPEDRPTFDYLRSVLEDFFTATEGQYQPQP

[7] = target: T2, Mitogen-activated protein kinase 14 (Homo sapiens, UniProt Q16539); experiment: Inhibition of p38alpha assessed as residual activity at 10 uM relative to control
T2 sequence (Q16539 whole entry): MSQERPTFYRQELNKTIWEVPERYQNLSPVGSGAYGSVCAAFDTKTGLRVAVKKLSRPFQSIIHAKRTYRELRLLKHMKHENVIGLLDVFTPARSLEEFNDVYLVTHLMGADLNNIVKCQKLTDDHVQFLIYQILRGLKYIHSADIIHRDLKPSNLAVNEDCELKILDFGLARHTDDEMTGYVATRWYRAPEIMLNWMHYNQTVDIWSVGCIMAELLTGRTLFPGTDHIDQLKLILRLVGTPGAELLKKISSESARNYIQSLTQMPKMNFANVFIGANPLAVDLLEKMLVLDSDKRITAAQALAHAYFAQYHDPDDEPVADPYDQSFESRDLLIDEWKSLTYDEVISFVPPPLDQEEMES

[8] = target: T3, Mitogen-activated protein kinase 15 (Homo sapiens) (UniProt Q8TD08); experiment: Residual activity of ERK8 at 10 uM relative to control
T3 sequence (whole entry): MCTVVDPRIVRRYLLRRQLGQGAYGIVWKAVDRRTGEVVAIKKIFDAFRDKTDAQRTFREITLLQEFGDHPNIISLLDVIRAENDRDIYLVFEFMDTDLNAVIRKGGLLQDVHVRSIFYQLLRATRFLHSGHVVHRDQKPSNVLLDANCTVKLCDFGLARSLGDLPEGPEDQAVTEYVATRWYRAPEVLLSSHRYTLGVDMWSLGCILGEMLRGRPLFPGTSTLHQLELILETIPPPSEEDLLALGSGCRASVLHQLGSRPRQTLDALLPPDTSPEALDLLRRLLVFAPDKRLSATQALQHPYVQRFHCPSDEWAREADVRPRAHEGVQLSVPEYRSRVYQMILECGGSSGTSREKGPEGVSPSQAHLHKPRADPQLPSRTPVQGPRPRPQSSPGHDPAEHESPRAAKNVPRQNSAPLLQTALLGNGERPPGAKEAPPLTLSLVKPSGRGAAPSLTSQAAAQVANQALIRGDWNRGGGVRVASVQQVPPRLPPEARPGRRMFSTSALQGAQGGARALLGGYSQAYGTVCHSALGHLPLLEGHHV

[9] = target: Mitogen-activated protein kinase 3 (Homo sapiens) (UniProt P27361); experiment: Inhibition of ERK1 assessed as residual activity at 10 uM relative to control
Chain of Mitogen-activated protein kinase 3 (Homo sapiens) (P27361 whole entry): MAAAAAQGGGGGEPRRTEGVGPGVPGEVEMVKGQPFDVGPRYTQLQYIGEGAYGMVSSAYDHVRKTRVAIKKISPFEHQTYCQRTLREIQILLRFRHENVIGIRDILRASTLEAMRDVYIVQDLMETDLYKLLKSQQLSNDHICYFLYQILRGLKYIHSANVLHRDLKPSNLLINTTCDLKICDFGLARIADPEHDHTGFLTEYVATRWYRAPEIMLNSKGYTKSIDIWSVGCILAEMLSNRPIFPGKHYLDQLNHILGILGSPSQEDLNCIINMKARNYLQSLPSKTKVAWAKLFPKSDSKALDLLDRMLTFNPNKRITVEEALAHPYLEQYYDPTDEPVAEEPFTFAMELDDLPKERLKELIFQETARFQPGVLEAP

[10] = target: T4, Mitogen-activated protein kinase 12 (Homo sapiens) (UniProt P53778); experiment: Residual activity of p38-gamma at 10 uM relative to control; format: functional
T4 sequence (whole entry): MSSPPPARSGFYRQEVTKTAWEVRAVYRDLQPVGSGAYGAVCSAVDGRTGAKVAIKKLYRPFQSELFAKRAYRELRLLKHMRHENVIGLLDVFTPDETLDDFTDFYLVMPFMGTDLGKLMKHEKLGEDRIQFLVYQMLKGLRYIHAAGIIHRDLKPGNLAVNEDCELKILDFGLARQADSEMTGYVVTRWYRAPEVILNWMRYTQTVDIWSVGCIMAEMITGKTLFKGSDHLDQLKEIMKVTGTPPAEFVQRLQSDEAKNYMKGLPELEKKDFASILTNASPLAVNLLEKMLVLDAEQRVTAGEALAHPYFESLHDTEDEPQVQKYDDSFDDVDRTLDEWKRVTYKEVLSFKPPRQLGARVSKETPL

[11] = target: T1, Mitogen-activated protein kinase 9; experiment: Residual activity of JNK2 at 10 uM relative to control
Target sequence in this assay (P45984 whole entry, looked up): as the sequence (P45984 whole entry) above

[12] = target: T5, Serine/threonine-protein kinase D1 (Homo sapiens) (UniProt Q15139); experiment: Inhibition of PKD1; values are per cent of control
T5 sequence (whole entry): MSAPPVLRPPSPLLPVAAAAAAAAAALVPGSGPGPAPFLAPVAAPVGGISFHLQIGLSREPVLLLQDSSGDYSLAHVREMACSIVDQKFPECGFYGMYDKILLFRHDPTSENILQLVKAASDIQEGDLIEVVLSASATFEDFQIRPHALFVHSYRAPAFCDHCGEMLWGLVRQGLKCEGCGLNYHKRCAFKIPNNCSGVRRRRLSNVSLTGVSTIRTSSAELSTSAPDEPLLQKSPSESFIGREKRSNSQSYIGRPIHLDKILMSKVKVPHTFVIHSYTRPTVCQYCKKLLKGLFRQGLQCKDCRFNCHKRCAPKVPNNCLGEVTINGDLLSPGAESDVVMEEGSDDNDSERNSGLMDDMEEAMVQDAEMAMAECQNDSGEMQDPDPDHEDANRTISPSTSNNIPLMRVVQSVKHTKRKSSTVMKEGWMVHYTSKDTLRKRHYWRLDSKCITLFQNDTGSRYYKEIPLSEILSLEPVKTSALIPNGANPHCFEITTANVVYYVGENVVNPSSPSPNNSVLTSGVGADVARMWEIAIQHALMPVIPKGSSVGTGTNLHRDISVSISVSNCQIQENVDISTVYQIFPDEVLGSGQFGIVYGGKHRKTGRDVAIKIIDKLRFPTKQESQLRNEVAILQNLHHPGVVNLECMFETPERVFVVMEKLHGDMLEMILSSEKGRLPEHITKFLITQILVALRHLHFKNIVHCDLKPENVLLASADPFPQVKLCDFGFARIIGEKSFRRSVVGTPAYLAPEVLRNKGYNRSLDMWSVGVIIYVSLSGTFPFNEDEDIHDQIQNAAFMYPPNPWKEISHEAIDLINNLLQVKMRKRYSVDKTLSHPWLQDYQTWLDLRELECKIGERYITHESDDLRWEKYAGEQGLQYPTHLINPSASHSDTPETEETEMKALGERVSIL

[13] = target: T6, Mitogen-activated protein kinase 13 (Homo sapiens) (UniProt O15264); experiment: Residual activity of p38delta at 10 uM relative to control
T6 sequence (whole entry): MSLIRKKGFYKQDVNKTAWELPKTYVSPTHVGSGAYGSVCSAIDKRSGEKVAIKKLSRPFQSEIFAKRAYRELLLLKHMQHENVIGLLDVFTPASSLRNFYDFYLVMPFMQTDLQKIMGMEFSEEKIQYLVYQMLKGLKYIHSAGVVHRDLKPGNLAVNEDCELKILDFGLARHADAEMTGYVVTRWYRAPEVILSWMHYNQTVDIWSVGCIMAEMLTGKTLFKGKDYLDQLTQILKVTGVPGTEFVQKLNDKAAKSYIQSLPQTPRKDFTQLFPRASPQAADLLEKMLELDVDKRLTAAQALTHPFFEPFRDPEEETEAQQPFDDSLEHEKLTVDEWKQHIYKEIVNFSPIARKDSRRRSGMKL

[14] = target: Mitogen-activated protein kinase 11 (Homo sapiens) (UniProt Q15759); experiment: Residual activity of p38beta at 10 uM relative to control
Chain of Mitogen-activated protein kinase 11 (Homo sapiens) (Q15759 whole entry): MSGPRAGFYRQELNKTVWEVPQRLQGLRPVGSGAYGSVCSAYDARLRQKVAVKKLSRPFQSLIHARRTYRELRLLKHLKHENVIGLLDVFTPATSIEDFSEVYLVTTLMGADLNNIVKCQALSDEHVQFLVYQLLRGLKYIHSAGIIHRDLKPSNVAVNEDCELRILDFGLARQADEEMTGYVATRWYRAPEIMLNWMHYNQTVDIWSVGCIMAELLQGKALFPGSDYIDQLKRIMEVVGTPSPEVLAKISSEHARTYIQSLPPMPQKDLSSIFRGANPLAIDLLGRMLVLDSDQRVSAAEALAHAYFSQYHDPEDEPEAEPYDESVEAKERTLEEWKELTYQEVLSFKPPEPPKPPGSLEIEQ

[15] = target: T2, Mitogen-activated protein kinase 14; experiment: Inhibition of p38alpha
[16] = Inhibition of Aurora C; values are per cent of control
[17] = target: Aurora kinase B (Homo sapiens) (UniProt Q96GD4); experiment: Inhibition of Aurora B; values are per cent of control
Chain of Aurora kinase B (Homo sapiens) (Q96GD4 whole entry): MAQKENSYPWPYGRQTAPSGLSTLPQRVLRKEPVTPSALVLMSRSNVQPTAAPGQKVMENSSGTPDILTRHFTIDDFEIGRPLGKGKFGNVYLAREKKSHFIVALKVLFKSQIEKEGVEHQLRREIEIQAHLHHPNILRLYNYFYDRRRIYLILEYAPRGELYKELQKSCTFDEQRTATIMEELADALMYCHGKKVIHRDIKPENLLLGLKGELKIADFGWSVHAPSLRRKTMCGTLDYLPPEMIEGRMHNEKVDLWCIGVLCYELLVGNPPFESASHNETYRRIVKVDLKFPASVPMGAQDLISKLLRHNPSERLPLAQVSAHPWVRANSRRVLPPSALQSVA

Chain of Mitogen-activated protein kinase 1 (Homo sapiens) (P28482 whole entry): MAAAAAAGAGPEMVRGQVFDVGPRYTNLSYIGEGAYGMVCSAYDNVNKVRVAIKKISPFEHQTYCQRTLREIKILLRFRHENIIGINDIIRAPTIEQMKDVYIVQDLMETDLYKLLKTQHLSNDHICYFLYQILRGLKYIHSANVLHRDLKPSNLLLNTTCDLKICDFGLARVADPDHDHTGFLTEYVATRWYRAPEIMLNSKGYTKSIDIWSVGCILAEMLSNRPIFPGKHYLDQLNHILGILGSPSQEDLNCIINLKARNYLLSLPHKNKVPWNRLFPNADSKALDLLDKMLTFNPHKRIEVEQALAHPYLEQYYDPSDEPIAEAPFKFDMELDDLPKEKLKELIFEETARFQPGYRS

Structure (SMILES): CC(C)c1onc(-c2ccc(F)cc2)c1-c1ccncc1
Activity [1]: 86%
residual activity [2]: 28%
Activity [3]: 67%
pIC50 [4]: 5.89
Activity [5]: 28%
residual activity [6]: 42%
Activity [7]: 20%
Activity [8]: 84%
Activity [9]: 92%
Activity [10]: 84%
Activity [11]: 13%
residual activity [12]: 60%
Activity [13]: 86%
Activity [14]: 95%

Structure (SMILES): O=c1[nH]c2ccccc2c(-c2ccncc2)c1-c1ccc(F)cc1
Activity [1]: 93%
Activity [3]: 86%
Activity [5]: 106%
Activity [7]: 53%
Activity [8]: 73%
Activity [9]: 84%
Activity [10]: 89%
Activity [11]: 89%
Activity [13]: 91%
Activity [14]: 97%

Structure (SMILES): O=c1[nH]c2ccccc2c(-c2ccccc2)c1-c1ccccc1
Activity [7]: 64%

Structure (SMILES): O=c1cc(-c2ccncc2)c2ccccc2[nH]1
Activity [7]: 78%

Structure (SMILES): O=c1c(-c2ccc(F)cc2)c(-c2ccncc2)c2ccccc2n1CCc1ccccc1
pIC50 [15]: 5.09

Structure (SMILES): CCOc1nc2ccccc2c(-c2ccncc2)c1-c1ccc(F)cc1
Activity [7]: 66%

Structure (SMILES): CC1(C)OCC(Cn2c(=O)c(-c3ccc(F)cc3)c(-c3ccncc3)c3ccccc32)O1 (stereo not drawn)
Activity [7]: 55%

Structure (SMILES): CC(C)c1noc(-c2ccc(F)cc2)c1-c1ccncc1
Activity [1]: 88%
Activity [3]: 98%
Activity [5]: 63%
Activity [7]: 50%
Activity [8]: 88%
Activity [9]: 87%
Activity [10]: 94%
Activity [11]: 59%
residual activity [16]: 35%
residual activity [17]: 22%
Activity [13]: 95%
Activity [14]: 98%

Structure (SMILES): CC#COc1nc2ccccc2c(-c2ccncc2)c1-c1ccc(F)cc1
Activity [7]: 79%

Continued, values first:

pIC50 [15]: 5.51
Structure (SMILES): CC#Cn1c(=O)c(-c2ccc(F)cc2)c(-c2ccncc2)c2ccccc21

Activity [7]: 57%
Structure (SMILES): CCC(O)C(O)n1c(=O)c(-c2ccc(F)cc2)c(-c2ccncc2)c2ccccc21 (stereo not drawn)

pIC50 [15]: 5.28
Structure (SMILES): Cn1c(=O)c(-c2ccc(F)cc2)c(-c2ccncc2)c2ccccc21

pIC50 [15]: 5.66
Structure (SMILES): CCn1c(=O)c(-c2ccc(F)cc2)c(-c2ccncc2)c2ccccc21

Activity [7]: 80%
Structure (SMILES): CCC(O)C(O)n1c(=O)c(-c2ccccc2C)c(-c2ccncc2)c2ccccc21 (stereo not drawn)

pIC50 [15]: 5.01
Structure (SMILES): Cc1ccccc1-c1c(-c2ccncc2)c2ccccc2[nH]c1=O
